# Values quoted from earlier work, collected in PMC6644309 (ACS Omega, 2018).
# Tests used:
# [1] = not given; remark: listed apart in the source
# [2] = in vivo
structure (smiles),measurement,setting,value
"CCCc1nc2c(C)cc(-c3nc4ccccc4n3C)cc2n1Cc1ccc(-c2ccccc2C(=O)O)cc1 [TLM, 2-[4-[[4-methyl-6-(1-methylbenzimidazol-2-yl)-2-propylbenzimidazol-1-yl]methyl]phenyl]benzoic acid]",solubility in water,in water,0.09 µg/mL
same,solubility at pH 3–7 (in words),"pH 3–7, physiological pH",practically insoluble
same,"pKa, benzimidazole (basic) group, first",[1],4.1
same,"pKa, benzimidazole (basic) group, second",[1],6.0
same,"pKa, carboxylic (acidic) group",[1],3.5
same,bioavailability,[2],42–58%
